Experimental data published in patent US12281122B1, “PI3K inhibitors” (Cogent Biosciences, Inc., priority 2023, dated 2025).

Experiments:
[1] = test system: T47D (PI3Kα-H1047R) cell line; test: HTRF phospho-AKT(S473) cell assay in T47D cells; assay type: cell-based, human; conditions: Homo sapiens, 2 hours compound incubation
Summary of the method: (§1)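 Cells plated overnight (T47D in RPMI/10% FBS/0.2 units/mL insulin; SKBR3 in McCoy's 5A/10% FBS), then given 12-point 1:3 compound series (top 5 μM T47D, 10 μM SKBR3; ≤0.5% DMSO) for 2 h at 37° C. SKBR3 stimulated with 70 ng/ml PDGF-BB for final 15 min. Lysate pAKT(S473) by HTRF; IC50 calculated.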

[2] = test system: SKBR3 (PI3Kα-Wild Type) cell line; test: HTRF phospho-AKT(S473) cell assay in SKBR3 cells; assay type: cell-based, human; conditions: Homo sapiens, SK-BR-3, 2 hours compound incubation, PDGF-BB stimulated
Summary of the method: as §1

[3] = HTRF phospho-AKT(S473), T47D (PI3Kα-H1047R) cells
[4] = HTRF phospho-AKT(S473), SKBR3 (PI3Kα-Wild Type) cells
[5] = T47D (PI3Kα-H1047R) cells, HTRF phospho-AKT(S473)
[6] = SKBR3 (PI3Kα-Wild Type) cells, HTRF phospho-AKT(S473)

Row | IC50 [1, 3] [µM] | IC50 [2, 4] [µM] | IC50 [1, 5] [µM] | IC50 [2, 6] [µM] | Compound | also measured
1 |  |  | < 0.25 | 1 to 5 | Cc1cc([C@@H](C)Nc2ccc(Cl)nc2C(=O)NS(C)(=O)=O)c2nc(N3CCC(c4ccn(C)c(=O)c4)CC3)n(C)c(=O)c2c1 [Compound 319, (R)-6-chloro-3-((1-(3,6-dimethyl-2-(4-(1-methyl-2-oxo-1,2-dihydropyridin-4-yl)piperidin-1-yl)-4-oxo-3,4-dihydroquinazolin-8-yl)ethyl)amino)-N-(methylsulfonyl) picolinamide] | 
2 | 0.25 to 0.5 | 1 to 5 |  |  | Cc1cc([C@@H](C)Nc2ccc(Cl)nc2C(=O)NS(C)(=O)=O)c2nc(N3CCC(n4cc(F)c(C)n4)CC3)n(C)c(=O)c2c1 [Compound 492, (R)-6-chloro-3-((1-(2-(4-(4-fluoro-3-methyl-1H-pyrazol-1-yl)piperidin-1-yl)-3,6-dimethyl-4-oxo-3,4-dihydroquinazolin-8-yl)ethyl)amino)-N-(methylsulfonyl) picolinamide] | 
3 | < 0.25 | 1 to 5 |  |  | Cc1cc([C@@H](C)Nc2ccc(Cl)nc2C(=O)NS(C)(=O)=O)c2nc(N3CC[C@@H](c4ccnc(C)c4)C3)n(C)c(=O)c2c1 (relative stereo) [Compound 764, 6-chloro-3-(((R)-1-(3,6-dimethyl-2-((R*)-3-(2-methylpyridin-4-yl)pyrrolidin-1-yl)-4-oxo-3,4-dihydroquinazolin-8-yl)ethyl)amino)-N-(methylsulfonyl) picolinamide] | 
4 |  |  | < 0.25 | 1 to 5 | CCn1c(N2C[C@@H]3[C@H](C2)[C@H]3c2ccn(C)n2)nc2c([C@@H](C)Nc3ccc(Cl)nc3C(=O)NS(C)(=O)=O)cc(C)cc2c1=O [Compound 432, 6-chloro-3-(((R)-1-(3-ethyl-6-methyl-2-((1R,5S,6R)-6-(1-methyl-1H-pyrazol-3-yl)-3-azabicyclo[3.1.0]hexan-3-yl)-4-oxo-3,4-dihydroquinazolin-8-yl)ethyl)amino)-N-(methylsulfonyl) picolinamide] | 
5 |  |  | < 0.25 | 1 to 5 | C[C@@H](Nc1ccc(Cl)nc1C(=O)NS(C)(=O)=O)c1cc(F)cc2c(=O)n(C)c(N3C[C@@H]4[C@H](C3)[C@H]4c3cnn(C)c3)nc12 [Compound 411, 6-chloro-3-(((R)-1-(6-fluoro-3-methyl-2-((1R,5S,6S)-6-(1-methyl-1H-pyrazol-4-yl)-3-azabicyclo[3.1.0]hexan-3-yl)-4-oxo-3,4-dihydroquinazolin-8-yl)ethyl)amino)-N-(methylsulfonyl) picolinamide] | 
6 | 0.25 to 0.5 | 1 to 5 |  |  | Cc1cc([C@@H](C)Nc2ccc(Cl)nc2C(=O)NS(C)(=O)=O)c2nc(-c3ccc(-c4ccn(C)n4)cn3)n(C)c(=O)c2c1 [Compound 838, (R)-6-chloro-3-((1-(3,6-dimethyl-2-(5-(1-methyl-1H-pyrazol-3-yl)pyridin-2-yl)-4-oxo-3,4-dihydroquinazolin-8-yl)ethyl)amino)-N-(methylsulfonyl) picolinamide] | 
7 | 0.25 to 0.5 | 1 to 5 |  |  | C[C@@H](Nc1ccc(Cl)nc1C(=O)NS(C)(=O)=O)c1cc(C(F)(F)F)cc2c(=O)n(C)c(N3C[C@@H]4[C@H](C3)[C@H]4c3ccn(C)n3)nc12 [Compound 452, 6-chloro-3-(((R)-1-(3-methyl-2-((1R,5S,6R)-6-(1-methyl-1H-pyrazol-3-yl)-3-azabicyclo[3.1.0]hexan-3-yl)-4-oxo-6-(trifluoromethyl)-3,4-dihydroquinazolin-8-yl)ethyl)amino)-N-(methylsulfonyl) picolinamide] | 
8 |  |  | < 0.25 | 1 to 5 | Cc1cc([C@@H](C)Nc2ccc(Cl)nc2C(=O)NS(C)(=O)=O)c2nc(N3CCC(c4cc(C#N)n(C)n4)CC3)n(C)c(=O)c2c1 [Compound 357, (R)-6-chloro-3-((1-(2-(4-(5-cyano-1-methyl-1H-pyrazol-3-yl)piperidin-1-yl)-3,6-dimethyl-4-oxo-3,4-dihydroquinazolin-8-yl)ethyl)amino)-N-(methylsulfonyl) picolinamide] | 
9 | < 0.25 | 1 to 5 |  |  | Cc1cc([C@@H](C)Nc2ccc(Cl)nc2C(=O)NS(C)(=O)=O)c2nc(N3CCO[C@H](c4ccccc4)C3)n(C)c(=O)c2c1 [Compound 689, 6-chloro-3-(((R)-1-(3,6-dimethyl-4-oxo-2-((R)-2-phenylmorpholino)-3,4-dihydroquinazolin-8-yl)ethyl)amino)-N-(methylsulfonyl) picolinamide] | 
10 |  |  | 0.25 to 0.5 | 1 to 5 | Cc1cc([C@@H](C)Nc2ccc(Cl)nc2C(=O)NS(C)(=O)=O)c2nc(N3CCC(c4n[nH]cc4F)CC3)n(C)c(=O)c2c1 [Compound 420, (R)-6-chloro-3-((1-(2-(4-(4-fluoro-1H-pyrazol-3-yl)piperidin-1-yl)-3,6-dimethyl-4-oxo-3,4-dihydroquinazolin-8-yl)ethyl)amino)-N-(methylsulfonyl) picolinamide] | 

More lines, now with the values behind:

Row | Compound | IC50 [1, 3] [µM] | IC50 [2, 4] [µM] | IC50 [1, 5] [µM] | IC50 [2, 6] [µM] | also measured
11 | Cc1cc([C@@H](C)Nc2ccc(Cl)nc2C(=O)NS(C)(=O)=O)c2nc(N3CCC[C@@H](c4cnc(C)c(C#N)c4)C3)n(C)c(=O)c2c1 (relative stereo) [Compound 614, 6-chloro-3-(((R)-1-(2-((R*)-3-(5-cyano-6-methylpyridin-3-yl)piperidin-1-yl)-3,6-dimethyl-4-oxo-3,4-dihydroquinazolin-8-yl)ethyl)amino)-N-(methylsulfonyl) picolinamide] | 0.5 to 1 | ≥ 5 |  |  | 
12 | CC(=O)N1CCC(c2ccc(-c3nc4c([C@@H](C)Nc5ccc(Cl)nc5C(=O)NS(C)(=O)=O)cc(C)cc4c(=O)n3C)cc2)CC1 [Compound 782, (R)-3-((1-(2-(4-(1-acetylpiperidin-4-yl)phenyl)-3,6-dimethyl-4-oxo-3,4-dihydroquinazolin-8-yl)ethyl)amino)-6-chloro-N-(methylsulfonyl) picolinamide] | < 0.25 | 1 to 5 |  |  | 
13 | Cc1cc([C@@H](C)Nc2ccc(Cl)nc2C(=O)NS(C)(=O)=O)c2nc(N3CCC(n4cc(-c5ccccc5)cn4)CC3)n(C)c(=O)c2c1 [Compound 235, (R)-6-chloro-3-((1-(3,6-dimethyl-4-oxo-2-(4-(4-phenyl-1H-pyrazol-1-yl)piperidin-1-yl)-3,4-dihydroquinazolin-8-yl)ethyl)amino)-N-(methylsulfonyl) picolinamide] |  |  | 0.25 to 0.5 | ≥ 5 | 
14 | Cc1cc([C@@H](C)Nc2ccc(Cl)nc2C(=O)NS(C)(=O)=O)c2nc(N3CCC(c4c(F)cnn4C(F)F)CC3)n(C)c(=O)c2c1 [Compound 464, (R)-6-chloro-3-((1-(2-(4-(1-(difluoromethyl)-4-fluoro-1H-pyrazol-5-yl)piperidin-1-yl)-3,6-dimethyl-4-oxo-3,4-dihydroquinazolin-8-yl)ethyl)amino)-N-(methylsulfonyl) picolinamide] | 0.25 to 0.5 | ≥ 5 |  |  | 
15 | Cc1cc([C@@H](C)Nc2ccc(Cl)nc2C(=O)NS(C)(=O)=O)c2nc(C#Cc3cnn(C)c3)n(C)c(=O)c2c1 [Compound 845, (R)-6-chloro-3-((1-(3,6-dimethyl-2-((1-methyl-1H-pyrazol-4-yl)ethynyl)-4-oxo-3,4-dihydroquinazolin-8-yl)ethyl)amino)-N-(methylsulfonyl) picolinamide] |  |  |  |  | IC50 ([1]; T47D (PI3Kα-H1047R) cell line, phospho-AKT(S473) HTRF): 0.5 to 1 µM; IC50 ([2]; SKBR3 (PI3Kα-Wild Type) cell line, phospho-AKT(S473) HTRF): ≥ 5 µM
16 | Cc1cc([C@@H](C)Nc2ccc(Cl)nc2C(=O)NS(C)(=O)=O)c2nc(N3[C@@H]4CC[C@H]3C[C@H](n3ncc5ccccc53)C4)n(C)c(=O)c2c1 [Compound 695, 3-(((R)-1-(2-((1R,3S,5S)-3-(1H-indazol-1-yl)-8-azabicyclo[3.2.1]octan-8-yl)-3,6-dimethyl-4-oxo-3,4-dihydroquinazolin-8-yl)ethyl)amino)-6-chloro-N-(methylsulfonyl) picolinamide] | 0.25 to 0.5 | ≥ 5 |  |  | 
17 | Cc1cc([C@@H](C)Nc2ccc(Cl)nc2C(=O)NS(=O)(=O)c2ccc(N(C)C)nc2)c2nc(N3Cc4ccc(F)cc4C3)n(C)c(=O)c2c1 [Compound 757, (R)-6-chloro-N-((6-(dimethylamino)pyridin-3-yl)sulfonyl)-3-((1-(2-(5-fluoroisoindolin-2-yl)-3,6-dimethyl-4-oxo-3,4-dihydroquinazolin-8-yl)ethyl)amino) picolinamide] | 0.25 to 0.5 | ≥ 5 |  |  | 
18 | Cc1cc([C@@H](C)Nc2ccc(Cl)nc2C(=O)NS(C)(=O)=O)c2nc(N3CCC(c4cc(F)cnc4C)CC3)n(C)c(=O)c2c1 [Compound 436, (R)-6-chloro-3-((1-(2-(4-(5-fluoro-2-methylpyridin-3-yl)piperidin-1-yl)-3,6-dimethyl-4-oxo-3,4-dihydroquinazolin-8-yl)ethyl)amino)-N-(methylsulfonyl) picolinamide] |  |  | < 0.25 | 1 to 5 | 
19 | Cc1cc([C@@H](C)Nc2ccc(Cl)nc2C(=O)NS(C)(=O)=O)c2nc(N3CCC[C@H](Oc4cnccn4)C3)n(C)c(=O)c2c1 [Compound 377, 6-chloro-3-(((R)-1-(3,6-dimethyl-4-oxo-2-((S)-3-(pyrazin-2-yloxy)piperidin-1-yl)-3,4-dihydroquinazolin-8-yl)ethyl)amino)-N-(methylsulfonyl) picolinamide] |  |  | 0.25 to 0.5 | ≥ 5 | 
20 | Cc1cc([C@@H](C)Nc2ccc(Cl)nc2C(=O)NS(C)(=O)=O)c2nc(N3Cc4cn(-c5ccc(C#N)cc5C)nc4C3)n(C)c(=O)c2c1 [Compound 250, (R)-6-chloro-3-((1-(2-(2-(4-cyano-2-methylphenyl)-2,6-dihydropyrrolo[3,4-c]pyrazol-5(4H)-yl)-3,6-dimethyl-4-oxo-3,4-dihydroquinazolin-8-yl)ethyl)amino)-N-(methylsulfonyl) picolinamide] |  |  | < 0.25 | 1 to 5 | 
